Reference: patent US8471005B2 (Cephalon, Inc., priority 2008, dated 2013)
Like-named read-outs stand apart in the source and are kept apart here.

How the values were obtained:
[1] = target: T1, JAK2 (Homo sapiens, UniProt O60674); assay: Recombinant Human JAK2 Kinase Assay (TRF); format: biochemical; conditions: read-out: JAK2 Potency
T1 construct: host or cells: baculovirus expression system
Procedure, shortened: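 Europium-labelled PY100 antibody reported tyrosine phosphorylation of a Neutravidin-captured biotinyl 15-mer peptide by JAK2 (baculovirus-expressed, 15 ng/ml). Conditions: 20 mM HEPES pH 7.2, 0.2 μM ATP, 1 mM MnCl2, 0.1% BSA, DMSO 2.5% final, 20 min at room temperature.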

[2] = target: T2, ALK (Homo sapiens, UniProt Q9UM73); assay: ALK Kinase Assay (ELISA/TRF, PLC-γ substrate); format: biochemical; conditions: read-out: ALK Potency
T2 construct: host or cells: baculovirus expression system
Procedure, shortened: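 IC50 values derive from percent inhibition plotted against log10 compound concentration and fitted to a variable-slope sigmoidal equation. The underlying reaction used 30 ng/ml ALK acting on immobilized PLC-γ (10 μg/mL in TBS) at 37° C for 15 minutes, read with Eu-N1 PT66 antibody.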

[3] = JAK2 kinase inhibition, 0.2 μM ATP
[4] = ALK kinase inhibition, 1 μM ATP

T1 sequence (O60674 whole entry): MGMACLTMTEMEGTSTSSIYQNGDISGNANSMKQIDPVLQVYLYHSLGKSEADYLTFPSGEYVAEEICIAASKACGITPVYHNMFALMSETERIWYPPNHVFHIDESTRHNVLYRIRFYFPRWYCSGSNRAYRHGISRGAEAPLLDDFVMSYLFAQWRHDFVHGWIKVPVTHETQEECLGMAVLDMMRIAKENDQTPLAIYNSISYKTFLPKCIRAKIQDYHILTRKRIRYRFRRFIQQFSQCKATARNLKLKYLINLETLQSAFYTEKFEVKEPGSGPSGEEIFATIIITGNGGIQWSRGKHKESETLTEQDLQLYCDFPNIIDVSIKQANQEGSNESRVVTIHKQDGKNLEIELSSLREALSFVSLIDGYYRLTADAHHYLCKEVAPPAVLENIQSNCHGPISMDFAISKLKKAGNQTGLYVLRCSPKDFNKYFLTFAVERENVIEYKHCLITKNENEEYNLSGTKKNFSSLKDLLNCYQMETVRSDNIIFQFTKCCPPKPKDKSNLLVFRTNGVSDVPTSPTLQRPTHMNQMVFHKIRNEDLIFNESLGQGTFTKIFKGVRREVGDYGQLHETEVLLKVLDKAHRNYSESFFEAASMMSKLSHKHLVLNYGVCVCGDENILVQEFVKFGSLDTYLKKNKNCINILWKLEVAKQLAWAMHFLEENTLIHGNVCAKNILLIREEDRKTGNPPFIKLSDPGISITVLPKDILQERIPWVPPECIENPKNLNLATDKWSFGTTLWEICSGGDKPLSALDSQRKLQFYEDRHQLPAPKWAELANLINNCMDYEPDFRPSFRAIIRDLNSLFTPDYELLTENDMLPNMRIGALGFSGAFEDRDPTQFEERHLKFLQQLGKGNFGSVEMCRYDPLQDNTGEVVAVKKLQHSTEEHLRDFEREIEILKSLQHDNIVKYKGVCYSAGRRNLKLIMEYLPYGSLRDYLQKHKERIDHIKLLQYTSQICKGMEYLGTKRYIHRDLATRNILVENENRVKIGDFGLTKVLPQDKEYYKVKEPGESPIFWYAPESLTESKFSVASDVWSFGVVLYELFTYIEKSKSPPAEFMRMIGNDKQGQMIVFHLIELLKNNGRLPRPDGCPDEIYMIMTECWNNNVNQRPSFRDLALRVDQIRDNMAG
T2 sequence (Q9UM73 19-1620): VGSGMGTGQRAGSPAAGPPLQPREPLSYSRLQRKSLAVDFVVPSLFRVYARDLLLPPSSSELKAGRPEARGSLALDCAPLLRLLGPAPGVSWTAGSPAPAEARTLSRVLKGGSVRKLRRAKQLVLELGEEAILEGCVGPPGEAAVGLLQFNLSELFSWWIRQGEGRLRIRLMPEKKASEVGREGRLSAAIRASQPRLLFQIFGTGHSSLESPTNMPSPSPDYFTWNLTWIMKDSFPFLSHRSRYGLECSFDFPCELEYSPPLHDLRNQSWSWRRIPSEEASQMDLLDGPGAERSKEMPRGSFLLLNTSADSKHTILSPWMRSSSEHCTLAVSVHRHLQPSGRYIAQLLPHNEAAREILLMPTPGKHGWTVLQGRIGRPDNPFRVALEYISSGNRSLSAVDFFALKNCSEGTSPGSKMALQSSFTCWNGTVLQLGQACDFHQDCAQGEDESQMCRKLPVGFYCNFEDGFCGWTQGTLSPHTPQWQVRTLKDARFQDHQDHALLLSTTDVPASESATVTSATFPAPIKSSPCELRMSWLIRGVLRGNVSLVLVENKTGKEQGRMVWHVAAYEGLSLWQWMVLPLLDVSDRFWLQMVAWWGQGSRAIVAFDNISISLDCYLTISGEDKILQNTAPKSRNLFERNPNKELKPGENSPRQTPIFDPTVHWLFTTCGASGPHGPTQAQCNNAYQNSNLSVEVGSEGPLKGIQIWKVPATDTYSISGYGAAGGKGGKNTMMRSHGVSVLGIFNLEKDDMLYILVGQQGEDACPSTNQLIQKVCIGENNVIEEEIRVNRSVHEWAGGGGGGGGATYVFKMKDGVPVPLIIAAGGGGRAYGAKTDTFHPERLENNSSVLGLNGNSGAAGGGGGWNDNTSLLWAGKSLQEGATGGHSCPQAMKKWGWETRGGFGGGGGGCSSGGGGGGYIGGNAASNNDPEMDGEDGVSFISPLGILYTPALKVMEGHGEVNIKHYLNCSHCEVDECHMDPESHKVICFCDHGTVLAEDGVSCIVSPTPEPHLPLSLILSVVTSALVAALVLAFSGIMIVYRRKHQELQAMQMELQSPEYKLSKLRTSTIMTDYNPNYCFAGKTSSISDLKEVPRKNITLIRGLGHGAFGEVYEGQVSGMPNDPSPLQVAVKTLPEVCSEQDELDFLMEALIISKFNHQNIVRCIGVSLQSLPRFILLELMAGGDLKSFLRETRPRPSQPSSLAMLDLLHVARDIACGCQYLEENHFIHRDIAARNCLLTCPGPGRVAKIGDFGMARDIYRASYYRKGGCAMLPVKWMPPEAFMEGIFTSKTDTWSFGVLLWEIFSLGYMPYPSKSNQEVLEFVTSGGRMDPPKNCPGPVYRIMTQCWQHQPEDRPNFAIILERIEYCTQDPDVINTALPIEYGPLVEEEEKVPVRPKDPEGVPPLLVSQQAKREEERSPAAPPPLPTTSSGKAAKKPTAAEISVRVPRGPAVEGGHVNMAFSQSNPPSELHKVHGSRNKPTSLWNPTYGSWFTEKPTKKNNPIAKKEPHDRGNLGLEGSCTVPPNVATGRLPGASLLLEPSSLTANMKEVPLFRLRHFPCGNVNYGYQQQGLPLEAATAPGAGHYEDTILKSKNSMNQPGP

IC50 [1, 3] | IC50 [2, 4] | IC50 ([1]; JAK2 Kinase Inhibition) | IC50 ([2]; ALK Kinase Inhibition) | SMILES
< 100 nM | 1000 to 10000 nM |  |  | O=S(=O)(CC1CC1)c1cccc(-c2ccc3cnc(Nc4ccc5nc[nH]c5c4)nn23)c1 [Example 1319, (3H-Benzimidazol-5-yl)-[7-(3-cyclopropylmethanesulfonyl-phenyl)-pyrrolo[2,1-f][1,2,4]triazin-2-yl]-amine]
> 10000 nM | > 10000 nM |  |  | COc1cc(C2CCN(C(=O)OC(C)(C)C)CC2)ccc1Nc1ncc2ccc(-c3ccccc3OC)n2n1 [Example 817, 4-{3-Methoxy-4-[7-(2-methoxy-phenyl)-pyrrolo[2,1-f][1,2,4]triazin-2-ylamino]-phenyl}-piperidine-1-carboxylic acid tert-butyl ester]
< 100 nM | 1000 to 10000 nM |  |  | COCCNc1cccc(-c2ccc3cnc(Nc4cccc(NC(C)=O)c4)nn23)c1 [Example 988, N-(3-{7-[3-(2-Methoxy-ethylamino)-phenyl]-pyrrolo[2,1-f][1,2,4]triazin-2-ylamino}-phenyl)-acetamide]
1000 to 10000 nM | < 100 nM |  |  | COc1cc(C2CCN(CC(N)=O)CC2)ccc1Nc1ncc2ccc(-c3cc(F)ccc3N(C)S(C)(=O)=O)n2n1 [Example 1282, 2-[4-(4-{7-[5-Fluoro-2-(methanesulfonyl-methyl-amino)-phenyl]-pyrrolo[2,1-f][1,2,4]triazin-2-ylamino}-3-methoxy-phenyl)-piperidin-1-yl]-acetamide]
100 to 1000 nM | 1000 to 10000 nM |  |  | CN1CCN(c2ncc3ccc(-c4ccccc4N(C)S(C)(=O)=O)n3n2)CC1 [Example 1250, N-Methyl-N-{2-[2-(4-methyl-piperazin-1-yl)-pyrrolo[2,1-f][1,2,4]triazin-7-yl]-phenyl}-methanesulfonamide]
 |  | < 100 nM | 100 to 1000 nM | COc1cncc(-c2ccc3cnc(Nc4ccc5c(c4)CCN(CC(=O)N(C)C)CC5)nn23)c1 [Example 1575]
 |  | < 100 nM | 100 to 1000 nM | COc1ccc(-c2ccc3cnc(Nc4ccc(N5CCC[C@@H](C(=O)N6CCN(C)CC6)C5)cc4OC)nn23)cn1 [Example 464, ((R)-1-{3-Methoxy-4-[7-(6-methoxy-pyridin-3-yl)-pyrrolo[2,1-f][1,2,4]triazin-2-ylamino]-phenyl}-piperidin-3-yl)-(4-methyl-piperazin-1-yl)-methanone]
< 100 nM | 1000 to 10000 nM |  |  | CN1CCN(C)C(c2cccc(Nc3ncc4ccc(-c5cccc(S(=O)(=O)N6CCCC6)c5)n4n3)c2)C1=O (stereo not drawn) [Example 1079, 1,4-Dimethyl-3-(3-{7-[3-(pyrrolidine-1-sulfonyl)-phenyl]-pyrrolo[2,1-f][1,2,4]triazin-2-ylamino}-phenyl)-piperazin-2-one]
> 10000 nM | 100 to 1000 nM |  |  | COc1c(Nc2ncc3ccc(-c4ccccc4N(C)S(C)(=O)=O)n3n2)cccc1C(=O)N1CCN(C)CC1 [Example 1230, N-(2-{2-[2-Methoxy-3-(4-methyl-piperazine-1-carbonyl)-phenylamino]-pyrrolo[2,1-f][1,2,4]triazin-7-yl}-phenyl)-N-methyl-methanesulfonamide]
< 100 nM | > 10000 nM |  |  | CCOC(=O)c1cccc(Nc2ncc3ccc(-c4cccc(S(=O)(=O)NC(C)(C)C)c4)n3n2)c1 [Example 890, 3-[7-(3-tert-Butylsulfamoyl-phenyl)-pyrrolo[2,1f][1,2,4]triazin-2-ylamino]-benzoic acid ethyl ester]
 |  | 1000 to 10000 nM | 100 to 1000 nM | COc1cc(N2CCN(C)CC2)ccc1Nc1ncc2cc3ccccc3n2n1 [Example 267, [2-Methoxy-4-(4-methyl-piperazin-1-yl)-phenyl]-[1,2,4]triazino[1,6-a]indol-2-yl-amine]
 |  | < 100 nM | 1000 to 10000 nM | CC(=O)Nc1cc(Nc2ncc3ccc(-c4cccc(Cl)c4)n3n2)ccc1C(C)C [Example 303, N-{5-[7-(3-Chloro-phenyl)-pyrrolo[2,1-f][1,2,4]triazin-2-ylamino]-2-isopropyl-phenyl}-acetamide]
